Measured values from PubChem BioAssay AID493083 (Broad Institute, 2011).
The source made the active and inactive calls.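 The calls were made as follows: active = compounds lowering signal whose fitted AC50 is at most ten times the top tested dose; inconclusive = flat fit with moderate inhibition, or poor curve fit; inactive = the rest.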

System: NIH3T3 R4 HSF-1 GFP reporter, heat shock, 48 h
Assay: decrease of heat-induced HSF-1 GFP reporter, dose response, NIH3T3 R4 cells, GFP/RFP, cherry-pick, set 3 (AID 493083)

Row | SMILES | AC50
1 | NNC(=S)NC1CC2CC1C1C=CCC21 (configuration not stated) | > 19.5 µM (inactive)
2 | O=S(=O)(c1ccc2c(c1)C(=NO)c1cc(S(=O)(=O)N3CCCCC3)ccc1-2)N1CCCCC1 | 2.08 µM
3 | CC[C@H]1CN2CCc3cc(OC)c(OC)cc3[C@@H]2C[C@@H]1C[C@H]1NCCc2cc(OC)c(OC)cc21 | 0.526 µM
4 | Fc1ccc(-n2cc(-c3ccccc3)c3c(N4CCOCC4)ncnc32)cc1 | > 19.5 µM (inactive)
5 | CC(=O)Cn1ncc(Br)c(Br)c1=O | 5.62 µM
6 | O=C1C=C(NCCN2CCOCC2)C(=O)c2cnccc21 | 5.57 µM
7 | C[C@H]1C[C@@H](C)C(=O)[C@@H]([C@H](O)CC2CC(=O)NC(=O)C2)C1 | 0.336 µM
8 | Cc1cc([N+](=O)[O-])c2ccccc2[n+]1[O-] | 5.71 µM
9 | CCOc1ccc(C(=O)COC(=O)Cc2n[nH]c(=O)c3ccccc23)cc1 | > 19.5 µM (inactive)
10 | COc1ccccc1-c1cc(C(F)(F)F)nc(S(=O)(=O)CCCC(=O)NCc2ccc(F)cc2)n1 | 5.18 µM
11 | Cn1c(=O)c([N+](=O)[O-])c(Cl)c2ccccc21 | 16.9 µM
12 | CCOC(=O)/C(=C\c1ccc([N+](=O)[O-])cc1)C(=O)c1cc(C(C)=O)c(Nc2ccccc2)s1 | 11.7 µM
13 | O=C(CCl)Nc1cn(-c2ccccc2)nc1-c1ccc(F)cc1 | 4.77 µM
14 | Nc1nc(F)nc2c1ncn2[C@@H]1O[C@H](CO)[C@@H](O)[C@H]1O | 1.61 µM
15 | C#CC(=O)N(c1cc(OC)ccc1OC)C(C(=O)NC1CCCC1)c1cccs1 (configuration not stated) | 5.66 µM
16 | CN=c1scc(-c2ccco2)n1/N=C/c1ccc(O)c(O)c1 | 5.23 µM
17 | Cc1ccc(-n2nc(C)c3cc(C(=O)O)sc32)cc1 | > 19.5 µM (inactive)
18 | COc1cccc(-c2nnc3n2N=C(C(C)(C)C)CS3)c1 | > 19.5 µM (inactive)
19 | O=C(CCl)Nc1cc(SCC(O)CO)cc([N+](=O)[O-])c1 (configuration not stated) | 5.73 µM
20 | O=C(Nc1ccccc1Cl)/C(Cl)=C(\Cl)S(=O)c1ccccc1 (configuration not stated) | 1.81 µM
21 | CC(C)CN=C(NS(=O)(=O)c1ccccc1)C(Cl)(Cl)Cl | 16.1 µM
22 | Cc1ccc(NC2=C/C(=N\S(=O)(=O)c3cccs3)c3ccccc3C2=O)c(C)c1 | 1.32 µM
23 | O=S(=O)(C/C(=C/CO)S(=O)(=O)c1ccccc1)c1ccccc1 | 5.86 µM
24 | CC12CCC(C/C1=N\N=C1\NC(=O)/C(=C\c3ccc(Cl)cc3)S1)C2(C)C (configuration not stated) | 2.4 µM

Row | SMILES | AC50
25 | Cc1cc(C)c2nc(C(F)(F)F)c(C#N)c(N)c2c1 | > 19.5 µM (inactive)
26 | NC(=O)C1CCN(CC(=O)Nc2nc(-c3ccccc3)cs2)CC1 | > 19.5 µM (inactive)
27 | CC(C)(C)c1ccc2c(c1)OC(C(=O)N/N=C\c1ccc[nH]1)CO2 (configuration not stated) | 0.848 µM
28 | Nc1ccc2oc(C3CCCCC3)nc2c1 | > 19.5 µM (inactive)
29 | OCCCNc1nccc(-c2cc(Nc3cccc(Cl)c3)ncn2)n1 | 18.7 µM
30 | O=C(CCl)N(c1ccccc1)C1CCCCC1 | 5.43 µM
31 | CCCCS(=O)(=O)/C=C\C=C/S(=O)(=O)CCCC | 5.46 µM
32 | CCc1ccc(S(=O)(=O)/N=C2\C=C(Nc3ccc(O)cc3)C(=O)c3ccccc32)cc1 | 1.74 µM
33 | Cc1nn(-c2ccccc2)c(N)c1C(O)(CSc1nccn1C)C(F)(F)F (configuration not stated) | > 19.5 µM (inactive)
34 | COc1ccc2[nH]c(=O)c(CN(Cc3cccs3)S(=O)(=O)c3c(C)ccc4nsnc34)cc2c1 | > 19.5 µM (inactive)
35 | C=C(C)C(=O)O[C@H]1C/C(C)=C\C(=O)/C=C(\C)[C@H](O)[C@@H]2OC(=O)C(=C)[C@@H]21 | 15.4 µM
36 | Cc1ccc(S(=O)(=O)c2ncccc2[N+](=O)[O-])cc1 | 5.64 µM
37 | Cc1c(NC(=O)C2CC(c3ccc(F)cc3)=NO2)c(=O)n(-c2ccccc2)n1C (configuration not stated) | > 19.5 µM (inactive)
38 | COc1cc(C2CC(c3cccs3)=NN2C(=O)CCl)ccc1OC(F)F (configuration not stated) | 14.8 µM
39 | CCOC(=O)Cc1nnc2c(Nc3ccccc3F)nc3nonc3n12 | 12.4 µM
40 | COc1ccc(C[C@H]2NC[C@H](O)[C@H]2OC(C)=O)cc1 | 0.551 µM
41 | CCOC(=O)C1CCN(C(=O)CC(C)c2ccccc2)CC1 (configuration not stated) | > 10 µM (inactive)
42 | O=C(COC(=O)/C=C/c1ccc(C(F)(F)F)cc1)NC1CC1 | > 19.5 µM (inactive)
43 | Nc1ncnc2c1ccn2[C@@H]1O[C@H](CO)[C@@H](O)[C@H]1O | 10.5 µM
44 | CCOC(=O)c1c(C)[nH]c2c1-c1ccccc1C(=O)C2=O | 1.4 µM
45 | S=C1Cc2ccccc2N1 | 12.4 µM
46 | CCN(c1ccccc1)S(=O)(=O)c1cnc[nH]1 | > 19.5 µM (inactive)
47 | O=C(CCl)Nc1ccc(-c2ccccc2)cc1 | 17.2 µM
